Article PMC10648877, “Novel Substituted Azoloazines with Anticoagulant Activity” (International Journal of Molecular Sciences, 2023)

How the values were obtained:
[1] = test system: platelet-poor plasma (PPP); test: Thrombin time (TT), rabbit blood coagulogram in vitro; format: biochemical; settings: rabbit blood in vitro, 100 μM; for TT: M ± m, n = 6
[2] = test system: platelet-poor plasma (PPP); test: Prothrombin time (PT), rabbit blood coagulogram in vitro; settings: 100 μM, M ± m, n = 6;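 also: clotting time read chronometrically on a hemocoagulometer using commercial reagent kits, with dabigatran etexilate at the same concentration as reference anticoagulant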
Experimental: The study was performed on platelet-poor plasma (PPP) stabilized with a 3.8% sodium citrate solution in a ratio of 9:1 according to the method described in [34]. Dabigatran etexilate (Boehringer Ingelheim Pharma GmbH and Co., Ingelheim am Rhein, Germany) was used as the reference drug. Test compounds and the reference drug were evaluated at a concentration of 100 μM. Effect on rabbit blood coagulograms in vitro was determined chronometrically with a SOLAR hemocoagulometer (Minsk, Belarus) using commercial kits (Technology-Standard, Barnaul, Russia) as per the manufacturer’s instructions. The following parameters were determined: activated partial thromboplastin time, thrombin time, and prothrombin time.

[3] = test system: platelet-poor plasma (PPP); test: Activated partial thromboplastin time (APTT), rabbit blood coagulogram in vitro; format: biochemical; settings: 100 μM, M ± m, n = 6;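 also: clotting time read chronometrically on a hemocoagulometer with commercial reagent kits, one of several coagulogram parameters alongside thrombin and prothrombin time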
Experimental: Test compounds and the reference drug were evaluated at a concentration of 100 μM. Effect on rabbit blood coagulograms in vitro was determined chronometrically with a SOLAR hemocoagulometer (Minsk, Belarus) using commercial kits (Technology-Standard, Barnaul, Russia) as per the manufacturer’s instructions. The following parameters were determined: activated partial thromboplastin time, thrombin time, and prothrombin time.

Row | melting point [°C] | SMILES | TT [1] [s] | PT [2] [s] | APTT [3] [s] | increase of thrombin time relative to the control [1] [times] | anticoagulant activity / thrombin time prolongation compared with dabigatran etexilate [1]
1 |  | Cc1cc2nc3c4ccccc4n(CCN(C)C)c3nc2cc1C [Compound 1a] | 22.7 ± 2.0 | 14.5 ± 0.0 | 22.1 ± 5.9 |  | 
2 |  | CN(C)CCn1c2ccccc2c2nc3ccccc3nc21 [Compound 1b] | 23.9 ± 0.9 | 13.3 ± 0.2 | 26.8 ± 2.4 |  | 
3 |  | Cc1cc2nc3c4ccccc4n(CCN4CCOCC4)c3nc2cc1C [Compound 1c] | 26.2 ± 1.0 | 13.8 ± 0.4 | 27.1 ± 2.0 |  | 
4 |  | c1ccc2nc3c(nc2c1)c1ccccc1n3CCN1CCOCC1 [Compound 1d] | 26.7 ± 1.3 | 13.4 ± 0.3 | 18.2 ± 0.5 |  | 
5 |  | CCCn1c2ccccc2c2nc3cc(C)c(C)cc3nc21 [Compound 1e] | 38.0 ± 0.5 | 13.4 ± 0.1 | 29.6 ± 0.2 |  | 
6 |  | CCCn1c2ccccc2c2nc3ccccc3nc21 [Compound 1f] | 39.3 ± 1.8 | 13.1 ± 0.3 | 24.8 ± 4.2 | 3.5 | 
7 |  | CCCCn1c2ccccc2c2nc3cc(C)c(C)cc3nc21 [Compound 1g] | 34.1 ± 0.9 | 11.7 ± 0.4 | 30.6 ± 1.6 |  | 
8 |  | CCCCn1c2ccccc2c2nc3ccccc3nc21 [Compound 1h] | 35.6 ± 1.1 | 13.9 ± 0.1 | 25.7 ± 3.1 |  | 
9 |  | Cc1cc2nc3c4ccccc4n(CCCN(C)C)c3nc2cc1C [Compound 1i] | 21.9 ± 1.2 | 13.8 ± 0.3 | 32.1 ± 4.8 |  | 
10 |  | CN(C)CCCn1c2ccccc2c2nc3ccccc3nc21 [Compound 1j] | 22.0 ± 2.7 | 14.2 ± 0.4 | 32.5 ± 0.1 |  | 
11 |  | C1=C(c2ccccc2)n2ncnc2NC1c1ccccc1 (centres unmarked) [Compound 5a] | 43.8 ± 4.3 | 13.4 ± 0.1 | 26.3 ± 2.9 | 3.5 | 
12 |  | C1=C(c2ccccc2)n2ncnc2NC1c1cccs1 (centres unmarked) [Compound 5b] | 21.0 ± 0.0 | 15.8 ± 0.3 | 25.9 ± 2.2 |  | 
13 |  | C1=C(c2cccs2)n2ncnc2NC1c1ccccc1 (centres unmarked) [Compound 5c] | 41.4 ± 3.1 | 13.9 ± 0.2 | 27.6 ± 1.9 |  | 
14 | 169 to 171 | Nc1ccc(-c2cc(-c3ccc(N)cc3)n3ccnc3n2)cc1 [Compound 7a, 4,4′-(Imidazo[1,2-a]pyrimidine-5,7-diyl)dianiline] | 66.58 ± 4.64 | 11.62 ± 1.00 | 56.23 ± 5.05 |  | comparable to dabigatran etexilate in terms of activity
15 | 211 to 214 | Nc1ccc(-c2cc(-c3cccs3)n3ncnc3n2)cc1 [Compound 7b, 4-(7-(Thiophen-2-yl)-[1,2,4]triazolo[1,5-a]pyrimidin-5-yl)aniline] | 32.3 ± 0.9 | 13.6 ± 0.5 | 35.0 ± 0.2 |  | 
16 |  | CCOC(=O)C1=C(C)Nc2ncnn2C1c1ccccc1 (centres unmarked) [Compound 8c] | 34.7 ± 0.7 | 14.2 ± 0.1 | 34.6 ± 0.7 |  | 
17 | 270 to 272 | CCOC(=O)C1=C(C)Nc2ncnn2C1c1cccc(NC(=O)CN)c1 (centres unmarked) [Compound 10a, Ethyl 7-(3-(2-aminoacetamido)phenyl)-5-methyl-4,7-dihydro-[1,2,4]triazolo[1,5-a]pyrimi-dine-6-carboxylate] | 48.6 ± 22.4 | 13.2 ± 1.0 | 30.9 ± 0.6 | 3.5 | 
18 | 270 to 272 | CCOC(=O)C1=C(C)Nc2ncnn2C1c1ccc(NC(=O)CN)cc1 (centres unmarked) [Compound 10b, Ethyl 7-(4-(2-aminoacetamido)phenyl)-5-methyl-4,7-dihydro-[1,2,4]triazolo[1,5-a]pyrimi-dine-6-carboxy-late] | 27.1 ± 1.4 | 12.7 ± 0.2 | 30.6 ± 2.6 |  | 
19 |  | COC1C([N+](=O)[O-])=CNc2nc(C(F)(F)F)nn21 (centres unmarked) [Compound 12a, 2-Trifluoromethyl-6-nitro-7-methoxy-4,7-dihydro[1,5-a]pyrimidyl-4 guanidate] | 24.3 ± 3.5 | 14.2 ± 0.1 | 25.1 ± 0.8 |  | 
20 |  | O=[N+]([O-])C1=NNc2ncnn2C1O (centres unmarked) [Compound 14, 6-Nitro-7-hydroxy-4,7-dihydro-1,2,4-triazolo[5,1-c]triazinyl-4 guanidate] | 23.8 ± 3.5 | 14.5 ± 0.5 | 24.5 ± 0.8 |  | 
21 |  | N=C(N)Nc1nnc2ncc(SCc3ccccc3)n2n1 [Compound 15a] | 32.8 ± 0.8 | 14.5 ± 0.3 | 34.0 ± 0.6 |  | 
22 |  | CCCCCCCCCCCCSc1cnc2nnc(NC(=N)N)nn12 [Compound 15b] | 33.7 ± 0.6 | 14.0 ± 0.2 | 34.1 ± 0.5 |  | 
23 | 235 to 237 | N=C(N)Nc1nnc2nnc(SCc3cccc(F)c3)n2n1 [Compound 16] | 25.9 ± 1.6 | 14.1 ± 0.3 | 26.3 ± 1.1 |  | 
24 | > 260 | CCCCCCCCSc1nnc2nnc(NC(=N)N)nn12 [Compound 16a, 6-Guanidino-3-octylthio-[1,2,4]triazolo[4,3-b][1,2,4,5]tetrazine] | 34.3 ± 4.7 | 12.2 ± 0.2 | 29.1 ± 1.4 |  | 
25 | 252 to 253 | N=C(N)Nc1nnc2nnc(SC3CCCC3)n2n1 [Compound 16b, 6-Guanidino-3-cyclopentylthio-[1,2,4]triazolo[4,3-b][1,2,4,5]tetrazine] | 22.7 ± 1.7 | 13.9 ± 0.5 | 24.7 ± 1.2 |  | 
